Converted amounts (≈) assume the structure as drawn.
Key:
Format in all cases: functional
[1] = tested on: HT-29; experiment: Cytotoxicity against human HT-29 cells after 6 days by MTT assay; settings: HT-29, 144 h, read-out: ED50 (the source's name)
[2] = tested on: MCF7; experiment: Cytotoxicity against human MCF7 cells after 6 days by MTT assay; settings: MCF7, 144 h, read-out: ED50 (the source's name)
[3] = tested on: Malme-3M; experiment: Cytotoxicity against human MALME-3M cells after 6 days by MTT assay; settings: 144 h, read-out: ED50 (the source's name)
[4] = tested on: SK-MEL; experiment: Cytotoxicity against human SK-MEL cells after 6 days by MTT assay; settings: 144 h, read-out: ED50 (the source's name)
[5] = tested on: A549; experiment: Cytotoxicity against human A549 cells after 6 days by MTT assay; settings: A549, 144 h, read-out: ED50 (the source's name)

| SMILES | EC50 [1] [µg/mL] | EC50 [2] [µg/mL] | EC50 [3] [µg/mL] | EC50 [4] [µg/mL] | EC50 [5] [µg/mL] |
| --- | --- | --- | --- | --- | --- |
| O=C(O)c1c(-c2ccc(Br)cc2)oc2ccccc2c1=O | > 25 | > 25 | > 25 | > 25 | > 25 |
| Nc1ccc(-c2cc(=O)c3ccc(O)cc3o2)cc1 | 4.71 (≈ 18.6 µM) | > 25 | > 25 | 6.59 (≈ 26 µM) | 8.87 (≈ 35 µM) |
| COC(=O)c1c(-c2cc(OC)c(OC)c(OC)c2)oc2ccccc2c1=O | > 25 | > 25 | > 25 | > 25 | > 25 |
| O=C(O)c1c(-c2ccc([N+](=O)[O-])cc2)oc2ccccc2c1=O | > 25 | > 25 | > 25 | > 25 | > 25 |
| COC(=O)c1c(-c2ccc([N+](=O)[O-])cc2)oc2ccccc2c1=O | > 25 | > 25 | > 25 | > 25 | > 25 |
| COC(=O)c1c(-c2ccc(O)cc2)oc2cc(OC)ccc2c1=O | 19.2 (≈ 58.9 µM) | > 25 | 20.1 (≈ 61.6 µM) | 19.6 (≈ 59.9 µM) | > 25 |
| COC(=O)c1c(-c2ccc([N+](=O)[O-])cc2)oc2ccc(OC)cc2c1=O | > 25 | > 25 | 24.1 (≈ 67.8 µM) | 8.18 (≈ 23 µM) | > 25 |
| Nc1ccc(-c2cc(=O)c3cc(O)ccc3o2)cc1 | 2.65 (≈ 10.5 µM) | > 25 | > 25 | 2.03 (≈ 8.02 µM) | 2.72 (≈ 10.7 µM) |
| COc1ccc(-c2oc3ccccc3c(=O)c2C(=O)O)cc1 | > 25 | > 25 | > 25 | > 25 | > 25 |
| COC(=O)c1c(-c2ccc(Br)cc2)oc2ccccc2c1=O | > 25 | > 25 | > 25 | > 25 | > 25 |
| COC(=O)c1c(-c2ccc(OC)cc2)oc2ccccc2c1=O | > 25 | > 25 | > 25 | > 25 | > 25 |
| Nc1ccc(-c2cc(=O)c3c(O)cc(O)cc3o2)cc1 | 3.44 (≈ 12.8 µM) | > 25 | > 25 | 3.86 (≈ 14.3 µM) | 2.84 (≈ 10.5 µM) |
| COC(=O)c1c(-c2ccc(O)cc2)oc2ccc(OC)cc2c1=O | > 25 | > 25 | > 25 | 18.7 (≈ 57.3 µM) | > 25 |
| COc1ccc(-c2oc3ccccc3c(=O)c2C(=O)O)cc1OC | > 25 | > 25 | > 25 | > 25 | > 25 |
| COc1ccc2oc(-c3ccc([N+](=O)[O-])cc3)c(C(=O)O)c(=O)c2c1 | > 25 | 15.8 (≈ 46.4 µM) | > 25 | > 25 | > 25 |
| COC(=O)c1c(-c2ccc(OCc3ccccc3)cc2)oc2ccc(OC)cc2c1=O | 15.6 (≈ 37.4 µM) | > 25 | > 25 | 20.9 (≈ 50.1 µM) | 22.1 (≈ 53 µM) |
| O=c1cc(-c2ccc([N+](=O)[O-])cc2)oc2cc(O)ccc12 | 6.95 (≈ 24.5 µM) | > 25 | > 25 | > 25 | 21.8 (≈ 76.9 µM) |
| COc1cc(-c2oc3ccccc3c(=O)c2C(=O)O)cc(OC)c1OC | > 25 | > 25 | > 25 | > 25 | > 25 |
| O=c1cc(-c2ccc([N+](=O)[O-])cc2)oc2ccc(O)cc12 | > 25 | > 25 | > 25 | 21 (≈ 74.2 µM) | 5.07 (≈ 17.9 µM) |
| COC(=O)c1c(-c2ccc(OCc3ccccc3)cc2)oc2ccccc2c1=O | > 25 | > 25 | > 25 | > 25 | > 25 |
| COc1cc(OC)cc(-c2oc3ccccc3c(=O)c2C(=O)O)c1 | > 25 | > 25 | > 25 | > 25 | > 25 |
| COC(=O)c1c(-c2ccc(NC(C)=O)cc2)oc2cc(OC)ccc2c1=O | 8.21 (≈ 22.3 µM) | 9.19 (≈ 25 µM) | 9.26 (≈ 25.2 µM) | 15.9 (≈ 43.4 µM) | 9.76 (≈ 26.6 µM) |
| COC(=O)c1c(-c2ccc(OC)c(OC)c2)oc2ccccc2c1=O | > 25 | > 25 | > 25 | > 25 | > 25 |
| COC(=O)c1c(-c2ccc(O)cc2)oc2ccccc2c1=O | > 25 | > 25 | > 25 | > 25 | > 25 |
| COC(=O)c1c(-c2cc(OC)cc(OC)c2)oc2ccccc2c1=O | 6.99 (≈ 20.5 µM) | > 25 | > 25 | > 25 | > 25 |
| O=c1cc(-c2ccc([N+](=O)[O-])cc2)oc2cc(O)cc(O)c12 | 3.34 (≈ 11.2 µM) | 6.9 (≈ 23.1 µM) | > 25 | 4.87 (≈ 16.3 µM) | 4.19 (≈ 14 µM) |

Reference: ChEMBL document CHEMBL1150207, “Cytotoxicities of some flavonoid analogues” (1991)
